{"source": "patent US5817692A", "about": "“Endoperoxides useful as antiparasitic agents” (priority 1996, dated 1998)", "key": {"L929 cells": {"system": "L929 cells", "assay": "cytotoxicity to L929 cells, MTT assay (viability and replication)", "type": "cell-based", "parameters": "Toxicity, Mean: unit not given here", "conditions": "L929 cells; for Toxicity, Mean: MTT; for inhibition at 0.1 µM / inhibition at 1 µM / inhibition at 10 µM / inhibition at 50 µM: Mus musculus, read-out: Toxicity, % of control (inhibition)", "description": "Toxoplasma gondii is the causative agent of cerebral toxoplasmic encephalitis, an AIDS-related opportunistic infection. The biological activity of the endoperoxide JHU 2886 of the present invention was measured against Toxoplasma gondii cultured in L929 cells.\nMore specifically, the cytotoxicity of synthetic organic endoperoxide JHU 2886 was tested in L929 cells by measuring the viability and replication of exposed cells. The cytotoxicity of the compound to the cultured cells was measured using the MTT assay (Promega kit), according to the procedure of Carmichael et al. (18). MTT is an abbreviation for [3-(4,5-dimethylthiazol-2-yl)-2,5-dephenyltetrazolium bromide].\nThis compound is referred to as JHU 2886 in Table 1. In this experiment atovaquone and artemisinin were used as positive controls. Atovaquone is a broad-spectrum anti-infective drug having antimalarial and antitoxoplasmosis activity (19).\n^1 The cytotoxicity of each compound for the cultured cells was\nmeasured using the MTT assay (Promega kit) and inhibition of the […]"}, "Toxoplasma gondii": {"system": "Toxoplasma gondii", "assay": "inhibition of intracellular replication of T. gondii in infected L929 cells, uracil incorporation assay", "type": "cell-based", "parameters": "Activity, Mean: unit not given here", "conditions": "for Activity, Mean: uracil incorporation; for inhibition at 0.1 µM / inhibition at 1 µM / inhibition at 10 µM / inhibition at 50 µM: Toxoplasma gondii, L929, read-out: Activity, % of control (inhibition)", "description": "Toxoplasma gondii is the causative agent of cerebral toxoplasmic encephalitis, an AIDS-related opportunistic infection. The biological activity of the endoperoxide JHU 2886 of the present invention was measured against Toxoplasma gondii cultured in L929 cells. The inhibitory activity of the synthetic organic endoperoxide was tested by measuring the intracellular replication of T. gondii in infected L929 cells. The inhibition of the intracellular replication of T. gondii was determined using the uracil incorporation assay (20). […] This compound is referred to as JHU 2886 in Table 1. In this experiment atovaquone and artemisinin were used as positive controls. Atovaquone is a broad-spectrum anti-infective drug having antimalarial and antitoxoplasmosis activity (19). | measured using the MTT assay (Promega kit) and inhibition of the | intracellular replication of T. gondii was determined using the uracil | incorporation assay."}}, "note": "Where two headings read alike, the source gives them in different places.", "data": [{"compound": "O=C1C(O)=C([C@H]2CC[C@H](c3ccc(Cl)cc3)CC2)C(=O)c2ccccc21", "note": "[Atovaquone]", "values": [{"measurement": "Toxicity, Score", "setting": "L929 cells; 24 hours, dose 0.1 μM", "value": "1 (≤20%)"}, {"measurement": "Toxicity, Mean", "setting": "L929 cells; 24 hours, dose 0.1 μM", "value": 0.095}, {"measurement": "Toxicity, Score", "setting": "L929 cells; 24 hours, dose 1.0 μM", "value": "1 (≤20%)"}, {"measurement": "Toxicity, Mean", "setting": "L929 cells; 24 hours, dose 1.0 μM", "value": 0.093}, {"measurement": "Toxicity, Score", "setting": "L929 cells; 24 hours, dose 10.0 μM", "value": "1 (≤20%)"}, {"measurement": "Toxicity, Mean", "setting": "L929 cells; 24 hours, dose 10.0 μM", "value": 0.092}, {"measurement": "Toxicity, Score", "setting": "L929 cells; 24 hours, dose 50.0 μM", "value": "2 (>20%-≤40%)"}, {"measurement": "Toxicity, Mean", "setting": "L929 cells; 24 hours, dose 50.0 μM", "value": 0.089}, {"measurement": "Toxicity, Score", "setting": "L929 cells; 48 hours, dose 0.1 μM", "value": 0}, {"measurement": "Toxicity, Mean", "setting": "L929 cells; 48 hours, dose 0.1 μM", "value": 0.214}, {"measurement": "Toxicity, Score", "setting": "L929 cells; 48 hours, dose 1.0 μM", "value": "1 (≤20%)"}, {"measurement": "Toxicity, Mean", "setting": "L929 cells; 48 hours, dose 1.0 μM", "value": 0.211}, {"measurement": "Toxicity, Score", "setting": "L929 cells; 48 hours, dose 10.0 μM", "value": "1 (≤20%)"}, {"measurement": "Toxicity, Mean", "setting": "L929 cells; 48 hours, dose 10.0 μM", "value": 0.204}, {"measurement": "Toxicity, Score", "setting": "L929 cells; 48 hours, dose 50.0 μM", "value": "3 (>40%-≤70%)"}, {"measurement": "Toxicity, Mean", "setting": "L929 cells; 48 hours, dose 50.0 μM", "value": 0.106}, {"measurement": "Toxicity, Score", "setting": "L929 cells; 72 hours, dose 0.1 μM", "value": 0}, {"measurement": "Toxicity, Mean", "setting": "L929 cells; 72 hours, dose 0.1 μM", "value": 0.473}, {"measurement": "Toxicity, Score", "setting": "L929 cells; 72 hours, dose 1.0 μM", "value": 0}, {"measurement": "Toxicity, Mean", "setting": "L929 cells; 72 hours, dose 1.0 μM", "value": 0.464}, {"measurement": "Toxicity, Score", "setting": "L929 cells; 72 hours, dose 10.0 μM", "value": 0}, {"measurement": "Toxicity, Mean", "setting": "L929 cells; 72 hours, dose 10.0 μM", "value": 0.456}, {"measurement": "Toxicity, Score", "setting": "L929 cells; 72 hours, dose 50.0 μM", "value": "3 (>40%-≤70%)"}, {"measurement": "Toxicity, Mean", "setting": "L929 cells; 72 hours, dose 50.0 μM", "value": 0.161}, {"measurement": "inhibition at 0.1 µM", "setting": "L929 cells; 24 hours, dose 0.1 μM", "value": 15.6, "unit": "%"}, {"measurement": "inhibition at 1 µM", "setting": "L929 cells; 24 hours, dose 1.0 μM", "value": 17.4, "unit": "%"}, {"measurement": "inhibition at 10 µM", "setting": "L929 cells; 24 hours, dose 10.0 μM", "value": 18.3, "unit": "%"}, {"measurement": "inhibition at 50 µM", "setting": "L929 cells; 24 hours, dose 50.0 μM", "value": 21.2, "unit": "%"}, {"measurement": "inhibition at 0.1 µM", "setting": "L929 cells; 48 hours, dose 0.1 μM", "value": 0, "unit": "%"}, {"measurement": "inhibition at 1 µM", "setting": "L929 cells; 48 hours, dose 1.0 μM", "value": 1.09, "unit": "%"}, {"measurement": "inhibition at 10 µM", "setting": "L929 cells; 48 hours, dose 10.0 μM", "value": 4.53, "unit": "%"}, {"measurement": "inhibition at 50 µM", "setting": "L929 cells; 48 hours, dose 50.0 μM", "value": 50.2, "unit": "%"}, {"measurement": "inhibition at 0.1 µM", "setting": "L929 cells; 72 hours, dose 0.1 μM", "value": 0, "unit": "%"}, {"measurement": "inhibition at 1 µM", "setting": "L929 cells; 72 hours, dose 1.0 μM", "value": 0, "unit": "%"}, {"measurement": "inhibition at 10 µM", "setting": "L929 cells; 72 hours, dose 10.0 μM", "value": 0, "unit": "%"}, {"measurement": "inhibition at 50 µM", "setting": "L929 cells; 72 hours, dose 50.0 μM", "value": 63.2, "unit": "%"}, {"measurement": "therapeutic index (ratio of activity to toxicity), quotient", "setting": "Toxoplasma gondii; 1 μM, T. gondii activity / L929 toxicity", "value": 5.6}, {"measurement": "Activity, Score", "setting": "Toxoplasma gondii; 24 hours, dose 0.1 μM", "value": "4 (>70%-≤90%)"}, {"measurement": "Activity, Mean", "setting": "Toxoplasma gondii; 24 hours, dose 0.1 μM", "value": 3096}, {"measurement": "Activity, Score", "setting": "Toxoplasma gondii; 24 hours, dose 1.0 μM", "value": "5 (>90%)"}, {"measurement": "Activity, Mean", "setting": "Toxoplasma gondii; 24 hours, dose 1.0 μM", "value": 693}, {"measurement": "Activity, Score", "setting": "Toxoplasma gondii; 24 hours, dose 10.0 μM", "value": "5 (>90%)"}, {"measurement": "Activity, Mean", "setting": "Toxoplasma gondii; 24 hours, dose 10.0 μM", "value": 612}, {"measurement": "Activity, Score", "setting": "Toxoplasma gondii; 24 hours, dose 50.0 μM", "value": "5 (>90%)"}, {"measurement": "Activity, Mean", "setting": "Toxoplasma gondii; 24 hours, dose 50.0 μM", "value": 1042}, {"measurement": "Activity, Score", "setting": "Toxoplasma gondii; 48 hours, dose 0.1 μM", "value": "3 (>40%-≤70%)"}, {"measurement": "Activity, Mean", "setting": "Toxoplasma gondii; 48 hours, dose 0.1 μM", "value": 6865}, {"measurement": "Activity, Score", "setting": "Toxoplasma gondii; 48 hours, dose 1.0 μM", "value": "5 (>90%)"}, {"measurement": "Activity, Mean", "setting": "Toxoplasma gondii; 48 hours, dose 1.0 μM", "value": 729}, {"measurement": "Activity, Score", "setting": "Toxoplasma gondii; 48 hours, dose 10.0 μM", "value": "5 (>90%)"}, {"measurement": "Activity, Mean", "setting": "Toxoplasma gondii; 48 hours, dose 10.0 μM", "value": 399}, {"measurement": "Activity, Score", "setting": "Toxoplasma gondii; 48 hours, dose 50.0 μM", "value": "5 (>90%)"}, {"measurement": "Activity, Mean", "setting": "Toxoplasma gondii; 48 hours, dose 50.0 μM", "value": 236}, {"measurement": "Activity, Score", "setting": "Toxoplasma gondii; 72 hours, dose 0.1 μM", "value": "3 (>40%-≤70%)"}, {"measurement": "Activity, Mean", "setting": "Toxoplasma gondii; 72 hours, dose 0.1 μM", "value": 2940}, {"measurement": "Activity, Score", "setting": "Toxoplasma gondii; 72 hours, dose 1.0 μM", "value": "4 (>70%-≤90%)"}, {"measurement": "Activity, Mean", "setting": "Toxoplasma gondii; 72 hours, dose 1.0 μM", "value": 1272}, {"measurement": "Activity, Score", "setting": "Toxoplasma gondii; 72 hours, dose 10.0 μM", "value": "5 (>90%)"}, {"measurement": "Activity, Mean", "setting": "Toxoplasma gondii; 72 hours, dose 10.0 μM", "value": 446}, {"measurement": "Activity, Score", "setting": "Toxoplasma gondii; 72 hours, dose 50.0 μM", "value": "5 (>90%)"}, {"measurement": "Activity, Mean", "setting": "Toxoplasma gondii; 72 hours, dose 50.0 μM", "value": 230}, {"measurement": "inhibition at 0.1 µM", "setting": "Toxoplasma gondii; 24 hours, dose 0.1 μM", "value": 78.4, "unit": "%"}, {"measurement": "inhibition at 1 µM", "setting": "Toxoplasma gondii; 24 hours, dose 1.0 μM", "value": 95.2, "unit": "%"}, {"measurement": "inhibition at 10 µM", "setting": "Toxoplasma gondii; 24 hours, dose 10.0 μM", "value": 95.7, "unit": "%"}, {"measurement": "inhibition at 50 µM", "setting": "Toxoplasma gondii; 24 hours, dose 50.0 μM", "value": 92.7, "unit": "%"}, {"measurement": "inhibition at 0.1 µM", "setting": "Toxoplasma gondii; 48 hours, dose 0.1 μM", "value": 60.1, "unit": "%"}, {"measurement": "inhibition at 1 µM", "setting": "Toxoplasma gondii; 48 hours, dose 1.0 μM", "value": 95.8, "unit": "%"}, {"measurement": "inhibition at 10 µM", "setting": "Toxoplasma gondii; 48 hours, dose 10.0 μM", "value": 97.7, "unit": "%"}, {"measurement": "inhibition at 50 µM", "setting": "Toxoplasma gondii; 48 hours, dose 50.0 μM", "value": 98.6, "unit": "%"}, {"measurement": "inhibition at 10 µM", "setting": "Toxoplasma gondii; 72 hours, dose 10.0 μM", "value": 93.8, "unit": "%"}, {"measurement": "inhibition at 50 µM", "setting": "Toxoplasma gondii; 72 hours, dose 50.0 μM", "value": 96.8, "unit": "%"}]}]}
